Molecules are shown by their SMILES.

The first test concerns Plasmodium falciparum Dd2 asexual blood stage parasites. The test is described as follows: microbe, parasite or virus in culture. Also noted: species or system Plasmodium falciparum Dd2 in human erythrocytes; single determination (one 11-point concentration-response curve). To be noted: Plasmodium falciparum, DD2, Erythrocyte, 72 h.
As to `O=C(CN(C(=O)c1cccc([N+](=O)[O-])c1)C1CCCCC1)Nc1ccc(Cl)c([N+](=O)[O-])c1` [MLS000560351-01], half-maximal activity (AC50) was put at 13.3 µM.

Staying with this test, now noted: Plasmodium falciparum, DD2, Erythrocyte, 72 h; read-out: AC50.
On to `O=C(NCC1CCCCC1)c1cc2ccccc2cc1O` [MLS001141978-01], for which the AC50 was found to be 9.44 µM. Consider `CCOc1ccccc1NC(C)C(=O)Nc1cc(C(F)(F)F)ccc1N1CCOCC1` (centres unmarked) [MLS000336343-01], for which the half-maximal activity concentration (AC50) worked out at 2.66 µM. On to `Cc1cccc(C)c1-n1ncc(C(=O)NCCCN2CCC(C)CC2)c1C1CCN(C(=O)OC(C)(C)C)CC1` [NCGC00127064-01], for which the AC50 was 15 µM. As for `CSc1cccc(Nc2nc3c([S+](=O)([O-])c4ccccc4)nnn3c3ccc(Cl)cc23)c1` [NCGC00112212-01], the AC50 was determined as 1.88 µM. On to `COC(=O)[C@@H]1Cc2ncn(Cc3ccc(OC)cc3)c2CN1[S+](C)(=O)[O-]` [NCGC00401682-01], for which the half-maximal activity concentration (AC50) turned out to be 19.3 µM. Turning to `CCC(=O)C1=C(c2ccc(OC)c(OC)c2)N(C(=O)CC)n2c(CC)nnc2S1` [NCGC00137256-01], the AC50 is 4.73 µM. `O=C(Nc1ccc(Cl)cc1)N1CCC2(CC1)CCN(Cc1cccs1)c1ccccc1O2` [NCGC00478210-01]: the AC50 stood at 8.41 µM. Turning to `COc1ccccc1C(=O)N1CCC2(CC1)c1nccn1-c1ccccc1CN2CC(C)C` [NCGC00442752-01], the AC50 is 11.9 µM.

`COc1ccc(NS(=O)(=O)c2cc(NC(=O)/C=C/c3cc(OC)c(OC)c(OC)c3)ccc2N2CCCCC2)cc1` [MLS000394995-01]: the AC50 amounted to 6.68 µM.

With `O=C1C=C(c2cccc(CO)c2)C[C@@H](c2ccc(Cl)cc2)C1` [MLS002302575-01], the AC50 was determined as 3.76 µM.

For the compound `O=C1COCC2(CN(Cc3ccsc3)C2)CN1Cc1cccc(OC(F)(F)F)c1` [NCGC00418928-01], the AC50 turned out to be 17.2 µM. As to `COc1ccc(NC(=O)Cn2cccc2-c2nc(-c3ccc(OC)c(F)c3)no2)cc1` [NCGC00445480-01], the AC50 amounted to 4.73 µM.

As to `Cc1cccc(CNCc2ccccc2OCC(O)CN2CCSCC2)c1` (centres unmarked) [NCGC00428382-01], the AC50 amounted to 1.5 µM. With `COc1ccc(CCNC(=O)Cn2c(-c3cccs3)cc3cc(F)ccc32)cc1OC` [NCGC00111974-01], the AC50 was 4.73 µM.

With `CCN(CC(O)c1cccc(O)c1)C(=O)C12CC3CC(CC(C3)C1)C2` (centres unmarked) [MLS001166662-01], the AC50 worked out at 4.73 µM.

Turning to `Cn1cccc1CN1CCCC2(C1)C(NC1CCCCC1)=NC(=O)N2c1cccnc1` (centres unmarked) [NCGC00374042-01], the concentration at half-maximal activity (AC50) is 5.31 µM.

For the compound `COc1cccc(NC(=O)c2sc3nc(C)c(C(=O)Nc4ccc(C)cc4C)c(-c4ccccc4Cl)c3c2N)c1` [NCGC00104946-01], the AC50 came to 2.66 µM.

On to `CN1CCN(Cc2nnc(C(=O)N3CCC[C@@H]3c3ccc(Br)cc3)n2Cc2ccccc2)CC1` [NCGC00415715-01], for which the concentration at half-maximal activity (AC50) came out at 7.5 µM.

In the case of `CC(=O)Nc1ccc2nnc(-c3ccc(C(=O)N4CCCCCC4)cc3)n2c1` [NCGC00429830-01], the AC50 is 8.41 µM. Take `CN(C)Cc1cn2c(=O)n(C)cc(-c3cccc(C(F)(F)F)c3)c2n1` [NCGC00416418-01]: the AC50 is 21.7 µM.

With `COc1ccc(S(=O)(=O)N2CCN(/C(S)=N/C3CCCCC3)CC2)cc1` [MLS000690529-01], the half-maximal activity concentration (AC50) amounted to 6.68 µM. With `c1ccc(Oc2ccc(Nc3cnc4ccc(N5CCOCC5)nn34)cc2)cc1` [NCGC00412601-01], the AC50 was found to be 7.69 µM.

As to `CCOc1ccc(-c2cn3c(n2)sc2cc(C(=O)NC(C)C45CC6CC(CC(C6)C4)C5)ccc23)cc1` (centres unmarked) [NCGC00113230-01], the AC50 was 5.96 µM. `CCCCn1cc([S+](=O)([O-])c2ccc(Cl)cc2)c(=O)c2cc(F)c(N3CCCCC3)cc21` [NCGC00123723-01]: the AC50 was 15 µM.

With `CCc1cc(=O)oc2cc(C)cc(OCC(=O)C(C)(C)C)c12` [MLS000666007-01], the AC50 worked out at 11.9 µM.

As for `CN1CCN(C(=O)C2(N(C)CCc3ccccc3)Cc3ccccc3C2)CC1` [NCGC00438807-01], the AC50 worked out at 2.66 µM. The same measure, in the same setting: the result for `COc1cccc(CC(=O)N2CCCC(CN3CCCC3)CC2)c1` (centres unmarked) [NCGC00456752-01] reads 15 µM. `Cc1cccn2c(=O)c3cc(C(=O)NC(C)c4ccccc4)c(=N)n(CCOCCO)c3nc12` (centres unmarked) [NCGC00100488-01]: the AC50 is 10.6 µM. Take `CC1CCCN(Cc2c(O)ccc3c(=O)c(Oc4ccccc4Cl)c(C(F)(F)F)oc23)C1` (centres unmarked) [NCGC00101512-01]: the AC50 came to 2.11 µM. As to `Cc1cc(C(=O)CN2C(=O)NC(c3ccccc3)(c3ccccc3)C2=O)c(C)n1Cc1ccco1` [MLS000056256-01], the AC50 came out at 8.41 µM.

Take `N#CC1CCN(C(=O)c2nc(-c3cccc(C(F)(F)F)c3)c3cnccn23)CC1` [NCGC00476479-01]: the AC50 was determined as 16.8 µM. As to `Cc1ccccc1Oc1nc(-c2ccccn2)nc2ccccc12` [MLS000769500-01], the AC50 worked out at 6.68 µM. As for `O[C@H]1CC[C@@H](Cc2cc(COc3ccccc3)on2)O[C@@H]1CNCc1cccc(Cl)c1` [NCGC00393311-01], the half-maximal activity concentration (AC50) turned out to be 2.11 µM. Turning to `C=C(C)COc1ccc(-c2n[nH]cc2Oc2ccccc2OCC)c(O)c1` [MLS000083085-01], the AC50 was found to be 2.99 µM. Consider `COc1ccc(CNC[C@H]2O[C@H](Cc3cc(-c4ccccc4)on3)CC[C@@H]2O)cc1` [NCGC00401044-01], for which the AC50 turned out to be 3.85 µM.

Consider `Cc1nn(-c2ccccc2)c2c1C(c1cccnc1)N1C=C(S(=O)(=O)N3CCCCC3)C=CC1=N2` (centres unmarked) [MLS000863363-01], for which the AC50 was 15 µM.

For `CCC(C)N(CCNC(=O)c1ccc2c(c1)NC(=O)c1ccccc1S2)C1CCCCC1` (centres unmarked) [MLS001110969-01], the AC50 is 13.3 µM. Same read-out and setting: to `CN1CC2(CCCN(CC3CC3)C2)c2cc(C(=O)NCCOc3ccccc3)ccc21` (centres unmarked) [NCGC00419362-01] belongs 17.2 µM. `CCOC(=O)c1[nH]c(C)c(CCC(=O)N2CCN(c3cc(C)ccc3C)CC2)c1C` [NCGC00134586-01]: the AC50 was found to be 1.33 µM. Consider `COc1ccc(CN2C(=O)C(C)N(C(=O)c3c(F)cccc3F)c3ccccc32)cc1` (centres unmarked) [MLS001166304-01], for which the AC50 worked out at 7.5 µM.

For `CC(C(=O)N1CCCC1)N1CCN(S(=O)(=O)c2ccc(C(C)(C)C)cc2)CC1` (centres unmarked) [MLS002156464-01], the AC50 is 3.35 µM. On to `COc1ccc(-c2cc(-c3ccc(N4CCOCC4)nc3)cn3cncc23)cc1` [NCGC00412184-01], for which the AC50 is 7.69 µM. Turning to `OCC[n+]1ccc(/C=C/c2c[nH]c3ccccc23)cc1` [MLS000585200-01], the AC50 was 2.99 µM.

For `COc1cc2c(cc1OC)C(COc1ccc3c(C)cc(=O)oc3c1)N(C(=O)c1ccccc1C)CC2` (centres unmarked) [NCGC00104945-01], the concentration at half-maximal activity (AC50) was 15 µM. As to `COc1ccc(-c2cc([C@H]3CN4CC[C@H]3C[C@@H]4CNC(=O)NC3CCCCC3)n(C)n2)cc1` [NCGC00399776-01], the AC50 was 1.88 µM. As for `COc1ccc(-c2cc(=O)c3cc(C)ccc3[nH]2)cc1` [MLS000517811-01], the AC50 turned out to be 10.6 µM. Turning to `Cc1ccc(CN2CCCN(Cc3ccncc3)C(c3ccccc3)CC(=O)NCC2)s1` (centres unmarked) [NCGC00467183-01], the AC50 worked out at 2.66 µM. Regarding `C#CCNC(=O)C[C@@H]1c2nc(NC(=O)OCC=C)sc2C[C@@H]2[C@](C)(CO)[C@H](O)CC[C@]21C` [NCGC00391491-01], the AC50 turned out to be 15 µM. The same measure, in the same setting: the result for `COc1cccc(CN2CCCC(N3CCN(c4cccc(C(F)(F)F)c4)CC3)C2)c1O` (centres unmarked) [NCGC00428830-01] reads 0.841 µM; that for `COc1ccccc1-c1n[nH]c2ncc(-c3cnn(C)c3)nc12` [NCGC00419074-01], 17.2 µM.

As for `Cc1ccc2c(C)c(C(=O)N3CCCC3c3nc(C(C)C)no3)oc2c1C` (centres unmarked) [NCGC00435047-01], the AC50 stood at 6.68 µM. In the case of `Cc1ccc(NC(=O)c2c(C)oc3ccc(O)c(CN(C)Cc4ccccc4)c23)c(C)c1` [NCGC00115687-01], the AC50 was 5.96 µM. As for `Cc1cccc(-c2cc(C3CCN([S+](=O)([O-])c4cccc(C#N)c4)CC3)[nH]n2)c1` [NCGC00433033-01], the AC50 was determined as 15 µM. For the compound `Cc1ccc(CN2CCOC[C@H]2c2nc(C(C)(C)C)c[nH]2)cc1` [NCGC00393602-01], the AC50 came out at 13.7 µM.

Consider `COc1ccc(C2=C(Nc3ccccc3)c3ccccc3C2=O)cc1` [MLS000572234-01], for which the AC50 came to 9.44 µM. On to `CCOC(=O)c1ccc(Nc2nc(=O)c(C(C)(C)C)n[nH]2)cc1` [MLS000044326-01], for which the concentration at half-maximal activity (AC50) worked out at 13.3 µM.

As for `O=C(Nc1cc(Cl)ccc1O)c1cc2nc(-c3ccc4c(c3)OCO4)cc(C(F)(F)F)n2n1` [NCGC00164969-01], the AC50 amounted to 2.66 µM. Consider `CCCc1nnc(C[C@@H]2C[C@@H](C(C)C)[C@H](CN3CCC[C@H]3CO)C=C2C)o1` [NCGC00392769-01], for which the AC50 stood at 17.2 µM. On to `COc1ccc2cc1Nc1ccc(cc1)C[C@H](NCc1ccc(C)o1)C(=O)N(C)[C@@H](C(=O)NCc1ccccc1)C2` [NCGC00410280-01], for which the AC50 stood at 5.31 µM. Still for that read-out and setting: the result for `CCOC(=O)c1nnn(-c2nonc2N)c1-c1ccc(OC)cc1` [MLS000043574-01] reads 5.31 µM.

On to `COc1cc2c(cc1OCC1CC1)NC(=O)C21CCN(c2nccs2)CC1` [NCGC00416908-01], for which the AC50 worked out at 21.7 µM. Regarding `Cc1ccc(-n2c(C3CCN(C(=O)COc4ccc(Cl)cc4)CC3)n[nH]c2=O)cc1` [NCGC00451295-01], the concentration at half-maximal activity (AC50) worked out at 10.6 µM. In the case of `Fc1ccc(OC2CN(CC3CCCCC3)C2)cc1F` [NCGC00476687-01], the AC50 was found to be 17.2 µM. For `CCc1cc(=O)oc2cc(C)cc(OCC(=O)NCC(O)c3ccccc3)c12` (centres unmarked) [MLS001158251-01], the AC50 is 6.68 µM. For `O=C(c1cccc(Cl)c1)N1CCC(c2nc(O)c3nnn(Cc4ccc(F)cc4F)c3n2)CC1` [NCGC00116055-01], the AC50 came to 5.96 µM. `COc1ccc(-n2nc(C(=O)NCCc3ccc(OC)c(OC)c3)c3c4ccccc4n(C)c3c2=O)cc1Cl` [NCGC00108876-01]: the AC50 turned out to be 2.99 µM. For the compound `O=C1CC(c2ccccc2)N(Cc2ccncc2)CCCN([S+](=O)([O-])c2cccs2)CCN1` (centres unmarked) [NCGC00467201-01], the AC50 came to 6.68 µM. Same read-out and setting: to `Cc1c(Cl)cccc1Nc1nn2c(=O)c3ccc(C(=O)NCCc4ccccc4)cc3nc2s1` [NCGC00125565-01] belongs 7.5 µM. With `O=C(NCCN1CCCCC1)c1ccc(-c2nnc3ccc(NC(=O)C4CCC4)cn23)cc1` [NCGC00429914-01], the AC50 stood at 13.3 µM. Take `COc1ccc(-n2cc(CNC3CCN(C)CC3)c(-c3cccc(F)c3)n2)cc1` [MLS000732463-01]: the AC50 is 10.6 µM.

The values above are taken from article PMC7822874, “Chemoprotective antimalarials identified through quantitative high-throughput screening of Plasmodium blood and liver stage parasites” (Scientific Reports, 2021).
